Measured values taken from patent US20130172324A1, “METHOD FOR TREATING CARDIOVASCULAR DISEASES USING RHO KINASE INHIBITOR COMPOUNDS” (priority 2008, published 2013).
Like-named read-outs stand apart in the source and are kept apart here. One block for each compound: values may come before it.

Columns and labels:
rat trachea rings = assay: Tracheal relaxation assay (carbachol precontracted rings); conditions: for Percentage of carbachol-induced contraction at 1 μM compound, Avg % / Percentage of carbachol-induced contraction at 10 μM compound, Avg %: 1 μM carbachol; for IC50: read-out: IC50 Avg; for Trachael Ring Contraction, %: average percentage of carbachol-induced rat tracheal ring contraction at 1 μM of test compound;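 for all read-outs here: isometric tension of rat tracheal rings in Krebs buffer with 1 µM indomethacin, compounds added cumulatively at 30 min intervals, basal tension subtracted, fit to Hill equation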
Procedure: The effects of compounds to induce relaxation of pre-contracted rat trachealis were determined. […] Trachea were excised, cleaned of connective tissue and cut into cylindrical segments of 2-3 mm length. Two stainless steel wires were guided through the lumen of the tracheal ring. One wire was fixed in the tissue bath and the other was connected to a force transducer via surgical silk. […] Indomethacin (1 μM), a cyclooxygenase inhibitor, was added to the Krebs buffer and was present throughout the experiments. Contractile tensions were measured using an isometric force transducer (Grass Instruments) and signals were analyzed using specialized software (Chart v5.5, ADInstruments). The preparations were allowed to equilibrate at a resting tension of 0.3 to 0.5 gm prior to two challenges with 60 mM KCl to assess tissue viability. After washing, tissues were treated with 1 μM carbachol for 10 to 15 minutes to induce a contractile response. Test Compounds were added cumulatively to the bath every 30 minutes and reductions in tension were recorded. Basal tension was subtracted from all values and data were reported as a percentage of the maximal carbachol-induced contraction. Data were fit to the Hill equation using GraphPad Prism v5 software.

[1] = Rat oral pharmacokinetics (plasma); type: in vivo
Procedure: Plasma (EDTA K2 anticoagulant) was collected from male, cannulated, CD Sprague Dawley rats to determine the pharmacokinetics of formulations containing compound inhibitors of Rho kinase. Each animal was dosed orally with a 4 ml/kg solution or suspension of each test compound in 10 mM acetate buffered saline, pH 4.5 at a final concentration range of 20-30 μmol/kg. Blood was collected at 0.25, 0.5, 1, 2, 4, 6, 8, and 24 hours. Plasma samples were assayed for the concentration of the test compound using an on-line, solid phase extraction LC/MS/MS analysis system.
Samples were analyzed on a QSTAR Elite, hybrid quadrupole time-of-flight mass spectrometer (Applied Biosystems, Framingham, Mass.) coupled with a Symbiosis Pharma integrated, on-line SPE-HPLC system (Spark Holland Inc., Plainsboro, N.J.). Analyst QS 2.0 software was used for instrument control, data acquisition and processing. […] Mobile Phase A consisted of 0.1% ammonium hydroxide in water and Mobile Phase B consisted of 0.1% formic acid in acetonitrile. Pharmacokinetic analyses were performed using WinNonlin software version 5.2 (Pharsight Corporation, Mountain View, Calif.).
As determined from the plasma concentration versus time curves, the time to peak and peak exposure are represented by the values Tmax and Cmax, respectively. The AUC values (nM*hr) shown were calculated as the areas under the plasma concentration versus time curves from time zero through the time of the last observable value and represent the total exposure of the compound over the course of the study. Half-life values or the amount of time required for the plasma levels of the compound to decline to half the initial value are represented as t1/2.

[2] = system: cytokine secretion from LPS-stimulated human monocytes; assay: Human monocyte cytokine secretion assay (LPS); type: cell-based
Procedure: Peripheral blood from healthy human volunteers was collected and the monocytes isolated via Ficoll-paque density centrifugation. […] The cells were allowed to pre-incubate with test compound at the indicated concentration for 30 minutes (37° C., 5% CO2, humidified air); after which the supernatant was removed and media containing compound and 1 ng/mL LPS was added. Cells were allowed to incubate with compounds and LPS for 4 hours at 37° C. after which the supernatant was removed and stored at −80° C. Cytokine concentrations in the supernatant were determined using commercially available Bio-Rad Bio-plex™ kits according the manufacturer's instructions.

[3] = system: ova-sensitized, ova-challenged mice; assay: Bronchodilator assay in ovalbumin-sensitized mice (Penh, methacholine); type: in vivo, mouse; conditions: for log10AUC (penh): bronchodilator dosing paradigm
Procedure: Male BALB/c mice were ordered from Charles River Laboratories (Raleigh, N.C.). The animals were approximately 19 to 21 grams at time of receipt. Upon arrival, the animals were randomized into groups of five males per cage and assigned to a dosing group. Animals were quarantined for 7 days under test conditions. They were observed daily for general health status and ability to adapt to the water bottles.
Animals were sensitized on day 0 and 14 of study by an intraperitoneal injection with 20 μg of ovalbumin (ova) and 2.0 mg aluminum hydroxide (alum) which initiates the development of a specific T-helper (Th) cells type 2 resulting in asthmatic animals. One group of animals received an injection of saline to use as non-asthmatic control animals. All animals were challenged with aerosolized 1% ova once daily for 25 minutes on days 28, 29, and 30 (Zosky, et al. Respiratory Research. 2004; 5:15). Aerosol challenge consists of using an Aerogen Aeroneb nebulizer and controller with a particle size of 4-6 μm mass median aerodynamic diameter (MMAD) with a distribution of 400 μl per minute. This aerosol challenge is necessary to target the Th2-driven allergic inflammation in the lower airways.
The test compounds and the control vehicle were administered to animals on the day of airway hyperreactivity evaluation 30 minutes to 1 hour before the evaluation to determine the bronchodilator effects of the compounds according to the bronchodilator dosing paradigm (FIG. 8). Compounds were administered p.o. (orally), i.p. (intraperitoneally) at 15 μMol/kg unless otherwise noted (Table 6). Alternatively, compounds were administered i.t. (intratracheally) at varying doses as shown (FIG. 9). On day 32 of the experiment, airway hyperreactivity was evaluated by placing conscious, unrestrained animals in a whole body plethysmometer (Buxco Wilmington, N.C.) and exposing them to escalating doses of nebulized methacholine, a known bronchial constrictor which acts through the muscarinic receptors of the lungs, (doses: 0.325-50 mg/ml). Exposure to the methacholine doses consisted of a 3 minute period during which a nebulizer was aerosolizing the methacholine and an additional 3 minute period following the cessation of nebulization. Over this 6 minute period, the plethysmometer monitors and generates numerical values for all parameters of the breath pattern. Enhanced pause (Penh), a unitless index of airway hyperreactivity, is derived from the expiratory side of the respiratory waveform measured via the plethysmograph and is used as an indirect measure of airway resistance and hyperreactivity. […] Following the methacholine dose response, all animals were anesthetized, bled and euthanized.
Within each experiment, a mouse was given a single compound and exposed to increasing doses of methacholine [0 (baseline), 0.375, 0.75, 1.5, 3, 6, 12, 25, 50 mg/ml]. The Penh value at each of the dose levels of methacholine represents the 6-minute average response. Change from baseline (CFB) in Penh was calculated at each methacholine dose and the area under the curve (AUC) for these CFB values was calculated using the trapezoidal rule. This same approach was applied for each mouse across multiple experiments.
For statistical analyses, a linear mixed-effects model where the response was the log 10 transformed value of AUC described above was used. Data from equal experimental conditions across experiments performed on different days were pooled for statistical analysis and data reporting. The various compounds were compared adjusting for the log 10-transformed baseline value of Penh and the chamber (1 of 10) of the plethysmometer each mouse was contained in during an experiment. A random intercept for each experiment was assumed to account for possible similarities of the results obtained from a given experiment (i.e., as a “blocking effect”). […] Computations were performed using PROC MIXED (SAS Version 9.1). […]

ERK1 = target: T1, ERK1 (Homo sapiens, UniProt P27361); assay: Kinase panel screen (KinaseProfiler), ERK1; type: biochemical; conditions: 10 μM ATP
T1 construct: purchased Upstate, Millipore Bioscience Division (KinaseProfiler service)
T1 sequence (P27361 whole entry): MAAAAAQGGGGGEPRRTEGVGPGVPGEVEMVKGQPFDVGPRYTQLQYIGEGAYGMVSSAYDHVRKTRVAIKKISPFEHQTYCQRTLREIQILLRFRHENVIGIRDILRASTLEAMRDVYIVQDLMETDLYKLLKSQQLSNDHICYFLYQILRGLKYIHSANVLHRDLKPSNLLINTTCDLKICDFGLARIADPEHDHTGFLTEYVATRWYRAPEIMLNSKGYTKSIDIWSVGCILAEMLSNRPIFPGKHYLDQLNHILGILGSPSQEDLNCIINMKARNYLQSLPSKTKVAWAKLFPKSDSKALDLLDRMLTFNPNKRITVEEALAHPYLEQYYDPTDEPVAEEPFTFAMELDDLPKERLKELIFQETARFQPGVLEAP
Procedure: (§1) Compounds of Formulae I and II were examined for activity against a selected panel of kinases using the KinaseProfiler™ enzyme profiling services (Upstate, Millipore Bioscience Division). Percent kinase activity at 10 μM and 1 μM test compound and 10 μM ATP was determined against 40 wild-type recombinant human kinases according to Upstate's standard protocol: ASK1, BTK, CSK, c-RAF, GCK, GSK3β, IKKα, IKKβ, IRAK1, IRAK4, JNK1α1, JNK2α2, JNK3, ERK1, ERK2, MAPKAP-K2, MAPKAP-K3, MEK1, MKK4, MKK6, MKK7β, Mnk2, MSK1, PAK3, PDK1, PRAK, ROCK1, Rsk2, SAPK2a, SAPK2b, SAPK3, SAPK4, SRPK1, SRPK2, Syk, TAK1, TBK1, PI3-Kβ, PI3-Kγ, PI3-Kδ.

ERK2 = target: T2, ERK2 (Homo sapiens, UniProt P28482); assay: Kinase panel screen (KinaseProfiler), ERK2; type: biochemical; conditions: 10 μM ATP
T2 construct: purchased Upstate, Millipore Bioscience Division (KinaseProfiler service)
T2 sequence (P28482 whole entry): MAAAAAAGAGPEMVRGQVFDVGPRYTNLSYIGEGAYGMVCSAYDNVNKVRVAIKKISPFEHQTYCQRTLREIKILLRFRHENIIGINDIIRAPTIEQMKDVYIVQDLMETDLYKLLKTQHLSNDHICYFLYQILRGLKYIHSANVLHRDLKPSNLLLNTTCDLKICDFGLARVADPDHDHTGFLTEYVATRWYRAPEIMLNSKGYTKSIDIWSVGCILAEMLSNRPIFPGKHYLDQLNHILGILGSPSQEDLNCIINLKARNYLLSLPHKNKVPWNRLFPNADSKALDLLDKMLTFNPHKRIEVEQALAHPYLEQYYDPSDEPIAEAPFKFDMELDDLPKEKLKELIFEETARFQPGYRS
Procedure: as §1

[4] = system: ova-sensitized, ova-challenged mice; assay: Prevention of airway hyperreactivity development, anti-inflammatory dosing paradigm (Penh); type: in vivo, mouse; conditions: intratracheal once a day, days 27 to 30 (1.091) or 27 to 31
[5] = rat, oral, 20-30 μmol/kg, plasma, mean of n = 3

Compound: OCCOc1cccc(CN2CCC[C@@H](Nc3ccc4[nH]ncc4c3)C2)c1 [Compound 1.092, (R)-2-(3-((3-(1H-indazol-5-ylamino)piperidin-1-yl)methyl)phenoxy)ethanol]
Percentage of carbachol-induced contraction at 1 μM compound, Avg % (rat trachea rings): 67.7% | Percentage of carbachol-induced contraction at 10 μM compound, Avg % (rat trachea rings): −2.9% | IC50 (rat trachea rings; Rattus norvegicus): 453 nM | Vz_F [1, 5]: 19.0 L/kg

Compound: Cc1ccc(CN2CC[C@@H](Nc3cccc4cnccc34)C2)cc1OCCO [Compound 2.064, (R)-2-(5-((3-(isoquinolin-5-ylamino)pyrrolidin-1-yl)methyl)-2-methylphenoxy)ethanol]
IL-1β % ([2]; 4 h, 10 µM): 14.3% | IL-6, % ([2]; 4 h, 10 µM): 45.7% | TNF-α % ([2]; 4 h, 10 µM): 66.2% | IL-1β % ([2]; average percent of stimulated IL-1β secretion from human monocytes at 10 μM of test compound): 14.3% | IL-6, % ([2]; average percent of stimulated IL-6 secretion from human monocytes at 10 μM of test compound): 45.7% | TNF-α % ([2]; average percent of stimulated TNF-α secretion from human monocytes at 10 μM of test compound): 66.2%

Compound: NS(=O)(=O)c1cccc(CN2CCC[C@H](Nc3ccc4[nH]ncc4c3)C2)c1 [Compound 1.215, (S)-3-((3-(1H-indazol-5-ylamino)piperidin-1-yl)methyl)benzenesulfonamide]
Percentage of carbachol-induced contraction at 1 μM compound, Avg % (rat trachea rings): 40.6% | Trachael Ring Contraction, % (rat trachea rings): 41% | log10AUC (penh) ([3]; 15 μmol/kg intraperitoneal): 2.0081

Compound: NC(=O)Cn1ccc2cc(CN3CCC[C@@H](Nc4ccc5[nH]ncc5c4)C3)ccc21 [Compound 1.162, (R)-2-(5-((3-(1H-indazol-5-ylamino)piperidin-1-yl)methyl)-1H-indol-1-yl)acetamide]
Percentage of carbachol-induced contraction at 1 μM compound, Avg % (rat trachea rings): 34.4% | Trachael Ring Contraction, % (rat trachea rings): 34% | log10AUC (penh) ([3]; 15 μmol/kg intraperitoneal): 1.7001 | Percent inhibition, ERK1 (ERK1; 1 μM test compound): 84% | Percent inhibition, ERK1 (ERK1; 10 μM test compound): 50% | Percent inhibition, ERK2 (ERK2; 1 μM test compound): 89% | Percent inhibition, ERK2 (ERK2; 10 μM test compound): 60%

Compound: Cc1ccc(CN2CC[C@@H](Nc3cccc4cnccc34)C2)cc1 [Compound 2.025, (R)-N-(1-(4-methylbenzyl)pyrrolidin-3-yl)isoquinolin-5-amine]
Percentage of carbachol-induced contraction at 1 μM compound, Avg % (rat trachea rings): 33.3% | Trachael Ring Contraction, % (rat trachea rings): 33% | log10AUC (penh) ([3]; 15 μmol/kg intraperitoneal): 1.9667

Compound: CCc1ccc(CN2CCC[C@@H](Nc3ccc4[nH]ncc4c3)C2)cc1 [Compound 1.136, (R)-N-(1-(4-ethylbenzyl)piperidin-3-yl)-1H-indazol-5-amine]
Percentage of carbachol-induced contraction at 1 μM compound, Avg % (rat trachea rings): 45.0% | Percentage of carbachol-induced contraction at 10 μM compound, Avg % (rat trachea rings): 19.7% | IC50 (rat trachea rings; Rattus norvegicus): 861 nM | Trachael Ring Contraction, % (rat trachea rings): 45% | log10AUC (penh) ([3]; 15 μmol/kg intraperitoneal): 2.1379 | log10AUC (penh) ([3]; 15 μmol/kg oral): 2.2490 | reduction in airway hyperresponsiveness ([3]; i.p. route, compared to oral dosing): enhanced reduction | reduction in airway hyperresponsiveness ([3]; oral doses): did not yield a significant reduction | oral bioavailability ([1]; oral dosing): poor oral bioavailability | AUC (0-last) [1, 5]: BLQ | Cmax [1, 5]: BLQ | Tmax [1, 5]: BLQ | Vz_F [1, 5]: BLQ | t½ [1, 5]: BLQ

Compound: Clc1ccc(CN2CCC[C@H](Nc3ccc4[nH]ncc4c3)C2)cc1 [Compound 1.141, (S)-N-(1-(4-chlorobenzyl)piperidin-3-yl)-1H-indazol-5-amine]
Percentage of carbachol-induced contraction at 1 μM compound, Avg % (rat trachea rings): 35.3% | Trachael Ring Contraction, % (rat trachea rings): 35%

IC50 (rat trachea rings; relaxation of 1 μM carbachol precontracted rat tracheal rings): 4780 nM
Compound: C[C@@H](N)[C@H]1CC[C@H](C(=O)Nc2ccncc2)CC1 [Compound Y-27632, reference compound]
Percentage of carbachol-induced contraction at 1 μM compound, Avg % (rat trachea rings): 83.7% | Percentage of carbachol-induced contraction at 10 μM compound, Avg % (rat trachea rings): 23.4% | log10AUC (penh) ([3]; 30 μmol/kg oral): 2.0135

Compound: Clc1ccc(CN2CCC[C@@H](Nc3ccc4[nH]ncc4c3)C2)cc1 [Compound 1.132, (R)-N-(1-(4-chlorobenzyl)piperidin-3-yl)-1H-indazol-5-amine]
Percentage of carbachol-induced contraction at 1 μM compound, Avg % (rat trachea rings): 42.4% | Trachael Ring Contraction, % (rat trachea rings): 42%

Compound: NCc1cccc(CN2CCC[C@@H](Nc3ccc4[nH]ncc4c3)C2)c1 [Compound 1.235, (R)-N-(1-(3-(aminomethyl)benzyl)piperidin-3-yl)-1H-indazol-5-amine]
log10AUC (penh) ([3]; 15 μmol/kg intraperitoneal): 1.9362

Compound: Cc1ccc(CN2CCC[C@@H](Nc3ccc4[nH]ncc4c3)C2)cc1OCCO [Compound 1.161, (R)-2-(5-((3-(1H-indazol-5-ylamino)piperidin-1-yl)methyl)-2-methylphenoxy)ethanol]
Percentage of carbachol-induced contraction at 1 μM compound, Avg % (rat trachea rings): 40.3% | Trachael Ring Contraction, % (rat trachea rings): 40% | log10AUC (penh) ([3]; 15 μmol/kg intraperitoneal): 1.9042 | airway hyperreactivity [4]: prevention of airway hyperreactivity | Percent inhibition, ERK2 (ERK2; 1 μM test compound): 104% | Percent inhibition, ERK2 (ERK2; 10 μM test compound): 92%

Compound: CS(=O)(=O)Nc1cc(CN2CCC[C@H](Nc3ccc4[nH]ncc4c3)C2)ccc1Cl [Compound 1.213, (S)-N-(5-((3-(1H-indazol-5-ylamino)piperidin-1-yl)methyl)-2-chlorophenyl)methanesulfonamide]
Percentage of carbachol-induced contraction at 1 μM compound, Avg % (rat trachea rings): 29.3% | Trachael Ring Contraction, % (rat trachea rings): 29%
